US12497610B2, “Functional genomics using CRISPR-CAS systems for saturating mutagenesis of non-coding elements, compositions, methods, libraries and applications thereof” (THE BROAD INSTITUTE, INC., priority 2015, dated 2025)

Tested on: human BCL11A erythroid enhancer
Assay: Tiled pooled CRISPR-Cas9 screen for in situ functional mapping of the human BCL11A erythroid enhancer (HbF-high/HbF-low sort, sgRNA deep sequencing)
Format: cell-based
Details: for Enrichment Score: HbF enrichment, human library NGG and NGG RC sgRNAs filtered for enrichment score >0.259; for Dropout Score: human library sgRNAs that produced HbF enrichment over 0.259
Source text: Every 20-mer sequence upstream of an NGG or NAG PAM sequence on the sense or anti-sense strand was identified for both the human and mouse orthologous +55, +58, and +62 DNase hypersensitive site (DHS) as well as BCL11A/BCL11a exon 2. Relative to the human hg 19 reference genome, a reference was used with the following substitutions to approximate a common low-HbF associated haplotype: rs1427407-G, rs1896293-T, rs6706648-T, rs6738440-G, rs7606173-C. Each of the sgRNA oligos were synthesized as previously described (37,41,64) and cloned using a Gibson Assembly master mix (New England Biolabs) into lentiGuide-Puro (Addgene plasmid ID 52963) BsmBI digested, PCR purified, and dephosphorylated. Gibson Assembly products were transformed to electrocompetent E. cloni cells (Lucigen). Sufficient colonies were isolated to ensure 90X library coverage for both human and mouse libraries. Plasmid libraries were deep sequenced (described below) to confirm representation.
Tiled Pooled CRISPR-Cas9 Screen for In Situ Functional Mapping the Human BCL11A Erythroid Enhancer.
HUDEP clone 2 (HUDEP-2) was utilized as previously described by from Nakamura and colleagues (49). HUDEP-2 cells were expanded in StemSpan SFEM (Stem Cell Technologies) supplemented with 10^−6 M dexamethasone (Sigma), 100 ng/mL human stem cell factor (SCF) (R&D), 3 IU/mL erythropoietin (Amgen), 1% L-glutamine (Life Technologies), and 2% penicillin/streptomycin (Life Technologies). 1 μg/mL doxycycline (Sigma) was included in the culture to induce expression of the human papilloma virus type 16 E6/E7 genes (49). HUDEP-2 cells were differentiated in Iscove's Modified Dulbecco's Medium (IMDM) supplemented with 330 μg/mL halo-transferrin (Sigma), 10 μg/mL recombinant human insulin (Sigma), 2 IU/mL heparin (Sigma), 5% human solvent detergent pooled plasma AB (Rhode Island Blood Center), 3 IU/mL erythropoietin (Amgen), 100 ng/mL human stem cell factor (SCF) (R&D), 1 μg/mL doxycycline (Sigma), 1% L-glutamine (Life Technologies), and 2% penicillin/streptomycin (Life Technologies).
HUDEP-2 cells with stable Cas9 expression were transduced at low multiplicity with the human sgRNA library lentivirus pool while in expansion medium. […] Cell numbers were maintained throughout the experiment at levels adequate to exceed 1000× representation of the library. 10 μg/mL blasticidin (Sigma) and 1 μg/mL puromycin (Sigma) were added 24 hours after transduction to select for lentiviral library integrants in cells with Cas9. Cells were cultured in expansion media for one week followed by differentiation media for an additional week.
Intracellular staining was performed by fixing cells with 0.05% glutaraldehyde (grade II) (Sigma) for 10 minutes at room temperature. Cells were centrifuged for 5 minutes at 350 g and then resuspended in 0.1% Triton-X100 (Life Technologies) for 5 minutes at room temperature for permeabilization. Triton X-100 was diluted with phosphate buffered saline (PBS) and then centrifuged at 350 g for 15 minutes. Cells were stained with anti-human antibodies for HbF (clone HbF-1 with FITC or APC conjugation; Life Technologies) and B-hemoglobin antibody (clone 37-8 with PerCP-Cy5 or PE conjugation; Santa Cruz) for 20 minutes in the dark. Cells were washed to remove unbound antibody prior to FACS analysis. 0.2 μg HbF and 2 μg of HbA CB-hemoglobin) antibodies were used per 5 million cells. Control cells exposed to a nontargeting sgRNA sample and BCL11A exon 2 were used as negative and positive controls respectively to establish flow cytometry conditions. Populations of cells with the top and bottom 10% of expression of HbF were sorted by FACS.
After sorting the HbF-high and HbF-low pools, library preparation and deep sequencing was performed as previously described (37). Briefly, genomic DNA was extracted using the Qiagen Blood and Tissue kit. […]

BCL_01623_H_D58 (guide AAGGGTTTGGCCTCTGATTANGGRC; listed as DNA, chemistry not given here)
Enrichment Score: 1.285
Dropout Score: −0.2669

BCL_01448_H_D55 (guide TGTGCTTGGTCGGCACTGATNGGRC; listed as DNA, chemistry not given here)
Enrichment Score: 1.348
Dropout Score: −0.4953

BCL_01665_H_D58 (guide TGTAACTAATAAATACCAGGNGGRC; listed as DNA, chemistry not given here)
Enrichment Score: 0.4418
Dropout Score: −0.6516

BCL_01994_H_exon2 (guide GATGCCAACCTCCACGGGATNGGRC; listed as DNA, chemistry not given here)
Enrichment Score: 1.11
Dropout Score: −0.9904

BCL_00227_H_D62 (guide ATCCCAGCACTTTGGGAGGCNGG; listed as DNA, chemistry not given here)
Enrichment Score: 0.79
Dropout Score: −8.099

BCL_00254_H_exon2 (guide GATCATGACCTCCTCACCTGNGG; listed as DNA, chemistry not given here)
Enrichment Score: 2.198
Dropout Score: −2.256

BCL_00089_H_D55 (guide TCCTGGTACCAGGAAGGCAANGG; listed as DNA, chemistry not given here)
Enrichment Score: 0.3559
Dropout Score: −0.7862

BCL_01833_H_D62 (guide AGTTCAAGTAGATATCAGAANGGRC; listed as DNA, chemistry not given here)
Enrichment Score: 0.6116
Dropout Score: 0.2289

BCL_01619_H_D58 (guide TTTTATCACAGGCTCCAGGANGGRC; listed as DNA, chemistry not given here)
Enrichment Score: 1.662
Dropout Score: −0.3147

BCL_00087_H_D55 (guide CATTGCATCATCCTGGTACCNGG; listed as DNA, chemistry not given here)
Enrichment Score: 0.438
Dropout Score: −0.2253

BCL_00186_H_D58 (guide CACGCCCCCACCCTAATCAGNGG; listed as DNA, chemistry not given here)
Enrichment Score: 0.8971
Dropout Score: −0.7965

BCL_01497_H_D55 (guide AAGAGGCCACTGAGTCCTTTNGGRC; listed as DNA, chemistry not given here)
Enrichment Score: 0.43
Dropout Score: 0.4562

BCL_01831_H_D62 (guide GGGTGGCTGTTTAAAGAGGGNGGRC; listed as DNA, chemistry not given here)
Enrichment Score: 0.4104
Dropout Score: −0.1486

BCL_00160_H_D58 (guide TCAGGGGGAGGCAAGTCAGTNGG; listed as DNA, chemistry not given here)
Enrichment Score: 0.3294
Dropout Score: −0.318

BCL_00245_H_D62 (guide GGAGATCGCTTGAACCTGGGNGG; listed as DNA, chemistry not given here)
Enrichment Score: 0.4762
Dropout Score: −5.067

BCL_01799_H_D62 (guide CTCAGGTGATCCTCCTGCCCNGGRC; listed as DNA, chemistry not given here)
Enrichment Score: 0.9108
Dropout Score: −9.478

BCL_01828_H_D62 (guide CTCTTCTCCAGGGTGTGGGGNGGRC; listed as DNA, chemistry not given here)
Enrichment Score: 0.3485
Dropout Score: −0.391

BCL_02010_H_exon2 (guide CCCCTTCTGGAGCTCCCAACNGGRC; listed as DNA, chemistry not given here)
Enrichment Score: 0.5003
Dropout Score: −0.1463

BCL_00108_H_D55 (guide TCTGAGGAGCTAGAGACTTGNGG; listed as DNA, chemistry not given here)
Enrichment Score: 0.3065
Dropout Score: −0.6499

BCL_00058_H_D55 (guide CCTCTATGTAGACGGGTGTGNGG; listed as DNA, chemistry not given here)
Enrichment Score: 0.3237
Dropout Score: −0.4848

BCL_01825_H_D62 (guide ATTTGCTCTTCTCCAGGGTGNGGRC; listed as DNA, chemistry not given here)
Enrichment Score: 0.2818
Dropout Score: −0.3945

BCL_01834_H_D62 (guide TATCAGAAGGGAACTGTTTGNGGRC; listed as DNA, chemistry not given here)
Enrichment Score: 0.4029
Dropout Score: 0.02327

BCL_01495_H_D55 (guide AGGGAGAAATGAGACAAAAGNGGRC; listed as DNA, chemistry not given here)
Enrichment Score: 0.2643
Dropout Score: −0.4932

BCL_01443_H_D55 (guide GGCACACCCTGTGATCTTGTNGGRC; listed as DNA, chemistry not given here)
Enrichment Score: 0.4181
Dropout Score: 0.2579

BCL_01639_H_D58 (guide ATCGGTGGCCGTTTGCCCAGNGGRC; listed as DNA, chemistry not given here)
Enrichment Score: 0.8219
Dropout Score: −0.8981

BCL_01618_H_D58 (guide TTGCTTTTATCACAGGCTCCNGGRC; listed as DNA, chemistry not given here)
Enrichment Score: 0.8561
Dropout Score: −0.8127

BCL_01801_H_D62 (guide CCCCGGCCTCCCAAAGTGCTNGGRC; listed as DNA, chemistry not given here)
Enrichment Score: 0.6113
Dropout Score: −8.0566

BCL_00130_H_D58 (guide GGAGTATGGGGAGAGAAGAGNGG; listed as DNA, chemistry not given here)
Enrichment Score: 0.3752
Dropout Score: −2.212

BCL_01788_H_D62 (guide GAGATTTACTCTTGTTGCCCNGGRC; listed as DNA, chemistry not given here)
Enrichment Score: 1.29
Dropout Score: −5.463

BCL_01993_H_exon2 (guide ACCTGGATGCCAACCTCCACNGGRC; listed as DNA, chemistry not given here)
Enrichment Score: 1.974
Dropout Score: −1.736

BCL_00210_H_D62 (guide TAAACAGCCACCCCACACCCNGG; listed as DNA, chemistry not given here)
Enrichment Score: 0.7026
Dropout Score: −0.8705

BCL_00252_H_exon2 (guide GCCCGTTGGGAGCTCCAGAANGG; listed as DNA, chemistry not given here)
Enrichment Score: 0.5453
Dropout Score: 0.09212

BCL_00181_H_D58 (guide CCTTCCGAAAGAGGCCCCCCNGG; listed as DNA, chemistry not given here)
Enrichment Score: 0.3399
Dropout Score: 0.2621

BCL_00241_H_D62 (guide CTCAGCTACTCGGGAGGCTGNGG; listed as DNA, chemistry not given here)
Enrichment Score: 0.6113
Dropout Score: −9.052

BCL_02005_H_exon2 (guide GTTCATCTGGCACTGCCCACNGGRC; listed as DNA, chemistry not given here)
Enrichment Score: 3.202
Dropout Score: −1.837

BCL_02008_H_exon2 (guide AGGAGGTCATGATCCCCTTCNGGRC; listed as DNA, chemistry not given here)
Enrichment Score: 0.3495
Dropout Score: −0.4482

BCL_02014_H_exon2 (guide TCTGTAAGAATGGCTTCAAGNGGRC; listed as DNA, chemistry not given here)
Enrichment Score: 0.9901
Dropout Score: −0.7711
